Measurements: US8192962B2, “Processes for detecting toxic substances” (Daikin Industries, Ltd., priority 2001, dated 2012)

Tested on: Genes belonging to other category
Assay: DNA chip mRNA expression in yeast, genes belonging to other category (Table 9)
Type: cell-based, Saccharomyces cerevisiae S288C
In short: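 Cells were grown at 25° C. in YPD, treated at logarithmic phase for 2 h with a chemical at a concentration inhibiting growth but not causing death, and compared with untreated cultures. Labeled cDNA was hybridized to a DNA chip carrying all yeast genes, and the expression ratio was taken from scanner fluorescence.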

C=CC=O [(14), acrolein]
The level of expressed mRNA in the presence of chemical substance/The level of expressed mRNA in the absence of chemical substance (yeast gene YDR432W): 0.5
The level of expressed mRNA in the presence of chemical substance/The level of expressed mRNA in the absence of chemical substance (yeast gene YDR481C): 0.9
The level of expressed mRNA in the presence of chemical substance/The level of expressed mRNA in the absence of chemical substance (yeast gene YDR510W): 1.9
The level of expressed mRNA in the presence of chemical substance/The level of expressed mRNA in the absence of chemical substance (yeast gene YEL042W): 0.6
The level of expressed mRNA in the presence of chemical substance/The level of expressed mRNA in the absence of chemical substance (yeast gene YEL066W): 1.9
The level of expressed mRNA in the presence of chemical substance/The level of expressed mRNA in the absence of chemical substance (yeast gene YER009W): 1.6
The level of expressed mRNA in the presence of chemical substance/The level of expressed mRNA in the absence of chemical substance (yeast gene YER021W): 1.3
The level of expressed mRNA in the presence of chemical substance/The level of expressed mRNA in the absence of chemical substance (yeast gene YER025W): 2.1
The level of expressed mRNA in the presence of chemical substance/The level of expressed mRNA in the absence of chemical substance (yeast gene YER039C): 1.2
The level of expressed mRNA in the presence of chemical substance/The level of expressed mRNA in the absence of chemical substance (yeast gene YER072W): 1.5
The level of expressed mRNA in the presence of chemical substance/The level of expressed mRNA in the absence of chemical substance (yeast gene YER107C): 1.1
The level of expressed mRNA in the presence of chemical substance/The level of expressed mRNA in the absence of chemical substance (yeast gene YER130C): 0.8
The level of expressed mRNA in the presence of chemical substance/The level of expressed mRNA in the absence of chemical substance (yeast gene YER177W): 0.9
The level of expressed mRNA in the presence of chemical substance/The level of expressed mRNA in the absence of chemical substance (yeast gene YFL022C): 3.1
The level of expressed mRNA in the presence of chemical substance/The level of expressed mRNA in the absence of chemical substance (yeast gene YFL028C): 1.6
The level of expressed mRNA in the presence of chemical substance/The level of expressed mRNA in the absence of chemical substance (yeast gene YFL043C): 1.5
The level of expressed mRNA in the presence of chemical substance/The level of expressed mRNA in the absence of chemical substance (yeast gene YFR014C): 1.0
The level of expressed mRNA in the presence of chemical substance/The level of expressed mRNA in the absence of chemical substance (yeast gene YFR050C): 1.6
The level of expressed mRNA in the presence of chemical substance/The level of expressed mRNA in the absence of chemical substance (yeast gene YGL094C): 0.9
The level of expressed mRNA in the presence of chemical substance/The level of expressed mRNA in the absence of chemical substance (yeast gene YGL150C): 1.0
The level of expressed mRNA in the presence of chemical substance/The level of expressed mRNA in the absence of chemical substance (yeast gene YGL158W): 2.3
The level of expressed mRNA in the presence of chemical substance/The level of expressed mRNA in the absence of chemical substance (yeast gene YGL185C): 1.5
The level of expressed mRNA in the presence of chemical substance/The level of expressed mRNA in the absence of chemical substance (yeast gene YGL229C): 1.0
The level of expressed mRNA in the presence of chemical substance/The level of expressed mRNA in the absence of chemical substance (yeast gene YGR036C): 1.0
The level of expressed mRNA in the presence of chemical substance/The level of expressed mRNA in the absence of chemical substance (yeast gene YGR120C): 1.0
The level of expressed mRNA in the presence of chemical substance/The level of expressed mRNA in the absence of chemical substance (yeast gene YGR131W): 2.0
The level of expressed mRNA in the presence of chemical substance/The level of expressed mRNA in the absence of chemical substance (yeast gene YGR136W): 1.1
The level of expressed mRNA in the presence of chemical substance/The level of expressed mRNA in the absence of chemical substance (yeast gene YGR189C): 0.9
The level of expressed mRNA in the presence of chemical substance/The level of expressed mRNA in the absence of chemical substance (yeast gene YGR213C): 1.0
The level of expressed mRNA in the presence of chemical substance/The level of expressed mRNA in the absence of chemical substance (yeast gene YGR232W): 2.1
The level of expressed mRNA in the presence of chemical substance/The level of expressed mRNA in the absence of chemical substance (yeast gene YGR239C): 1.4
The level of expressed mRNA in the presence of chemical substance/The level of expressed mRNA in the absence of chemical substance (yeast gene YGR257C): 0.9
The level of expressed mRNA in the presence of chemical substance/The level of expressed mRNA in the absence of chemical substance (yeast gene YHR004C): 0.8
The level of expressed mRNA in the presence of chemical substance/The level of expressed mRNA in the absence of chemical substance (yeast gene YHR071W): 1.6
The level of expressed mRNA in the presence of chemical substance/The level of expressed mRNA in the absence of chemical substance (yeast gene YHR109W): 1.5
The level of expressed mRNA in the presence of chemical substance/The level of expressed mRNA in the absence of chemical substance (yeast gene YHR139C): 2.5
The level of expressed mRNA in the presence of chemical substance/The level of expressed mRNA in the absence of chemical substance (yeast gene YHR142W): 1.2
The level of expressed mRNA in the presence of chemical substance/The level of expressed mRNA in the absence of chemical substance (yeast gene YHR161C): 1.0
The level of expressed mRNA in the presence of chemical substance/The level of expressed mRNA in the absence of chemical substance (yeast gene YHR163W): 1.5
The level of expressed mRNA in the presence of chemical substance/The level of expressed mRNA in the absence of chemical substance (yeast gene YHR169W): 1.1
The level of expressed mRNA in the presence of chemical substance/The level of expressed mRNA in the absence of chemical substance (yeast gene YHR171W): 1.0
The level of expressed mRNA in the presence of chemical substance/The level of expressed mRNA in the absence of chemical substance (yeast gene YIL010W): 1.7
The level of expressed mRNA in the presence of chemical substance/The level of expressed mRNA in the absence of chemical substance (yeast gene YIL034C): 1.1
The level of expressed mRNA in the presence of chemical substance/The level of expressed mRNA in the absence of chemical substance (yeast gene YIL076W): 1.4
The level of expressed mRNA in the presence of chemical substance/The level of expressed mRNA in the absence of chemical substance (yeast gene YIL123W): 0.3
The level of expressed mRNA in the presence of chemical substance/The level of expressed mRNA in the absence of chemical substance (yeast gene YIL140W): 0.9
The level of expressed mRNA in the presence of chemical substance/The level of expressed mRNA in the absence of chemical substance (yeast gene YIL142W): 1.0
